{"source": "paper PMC5949603", "about": "“Bridged bicyclic peptides as potential drug scaffolds: synthesis, structure, protein binding and stability” (Chemical Science, 2015)", "key": {"[1]": {"assay": "Human serum stability assay", "assay_type": "in vitro ADME", "conditions": "24 h, 37 °C, 200 μM peptide", "description": "Human serum was diluted 1 : 4 in DMEM. Selected peptide was diluted in TRIS buffer to a concentration of 400 μM. Aliquots of peptide solution (50 μL) were added to aliquots of serum (50 μL) in sterile Eppendorf tubes, to reach a peptide concentration of 200 μM during the assay. Samples were incubated at 37 celsius degree under gentle stirring (350 rpm). Different samples (triplicate) were quenched at different time points (0/1/3/6/24 h) by precipitating serum proteins through the addition of ZnSO4·7H2O (0.1 M, 100 μL) and cooling down in ice bath. Protein precipitates were pelleted under centrifugation and the supernatants were sampled and evaporated to dryness in a centrifugal evaporator. Samples were resuspended in a H2O/ACN (4 : 1) mixture and centrifuged again to remove residual protein precipitate. Supernatants were then sampled and analysed by LC-MS. Experiment controls included a precipitation control for each peptide, to test their resistance to the protein precipitation conditions, and serum blanks, to check reproducibility over different serum batches. Two peaks originating from DMEM, surviving the incubation in serum and the protein precipitation conditions were used as internal standard."}, "CALM1 (calmodulin) [2]": {"target": "T1, CALM1 (calmodulin) (Homo sapiens, UniProt P0DP23)", "assay": "Capture compound mass spectrometry (CCMS) proteome profiling in HeLa cell lysate", "assay_type": "binding", "set-up": "endogenous in cells; host or cells: HeLa cell lysate", "conditions": "probe 5 μM, competitor 240 μM, enrichment >2-fold, triplicate", "description": "Capture experiments were carried out in PCR strips according to the general CCMS procedure.[48] 400 μg of HeLa cell lysate at 10 μg μL^–1 was pipetted for each set in triplicate. To the competition samples, 240 μM of BBP-competitor was added as a final concentration and incubated for 30 min at 4 °C. Assay and competition samples were then incubated with BBP-capture compounds or BBP-scaffold controls at a final concentration of 5 μM for 1 hour at 4 °C on a rotating axis and irradiated for 10 min at 310 nm in a caproBox™ (caprotec bioanalytics GmbH) to promote covalent cross-linking. Streptavidin-coated magnetic beads (Invitrogen) were added to the samples and further rotated for 1 hour at 4 °C. The beads were collected using a caproMag (caprotec bioanalytics GmbH) and washed 4 times with washing buffer (caprotec bionanalytics GmbH) followed by 3 times washing with 80% acetonitrile and lastly resuspended in MS-grade water. For tryptic digestion, the magnetic beads were incubated with trypsin in 50 mM ammonium bicarbonate for 16 hours at 37 °C. The supernatant was recovered, evaporated and stored at –20 °C until mass spectrometry analysis.\nMass Spectrometry: Tryptic digests were analyzed by online nanoflow liquid chromatography tandem MS (LC-MSn) on an UltiMate 3000 RSLCnano System (Dionex, part of Thermo Fisher Scientific, Germany) coupled to a LTQ-Orbitrap Velos instrument (Thermo Fisher Scientific, Germany) through a Proxeon nanoelectrospray ion source (Proxeon, part of Thermo Fisher Scientific, Germany). For chromatographic separation samples were first loaded on a reversed phase (RP) precolumn (Acclaim PepMap100, 5 μm, 100 Å, 100 μm i.d. × 20 mm) and separated on a RP analytical column (Acclaim PepMap RSLC C18, 2 μm, 100 Å, 75 μm i.d. × 150 mm, Dionex, part of Thermo Fisher Scientific, Germany) performing a 96 min gradient (5–45 % acetonitrile, 0.1% formic acid). MS detection was performed in the data-dependent mode allowing to automatically switch between Orbitrap-MS and LTQ-MS/MS acquisition in a top 20 configuration at 60 K resolution for a full scan with subsequent collision induced dissociation (CID) fragmentation. Full scan MS spectra (from m/z 300–2000) were acquired in the Orbitrap analyzer after accumulation to a target value of 1 × 10^6 in the linear ion trap. The most intense ions (up to twenty, depending on signal intensity) with charge state ≥2 were sequentially isolated at a target value of 5000 and fragmented in the linear ion trap using low energy CID with normalized collision energy of 35%. […] All MS/MS data were analyzed using Andromeda implemented in MaxQuant.[33] […] The label free quantification option was selected with a maximal retention time window of 2 min for the alignment between LC-MS/MS runs."}, "[3]": {"assay": "Water solubility (stated in words)", "assay_type": "physicochemical"}, "CALM1 (calmodulin) [4]": {"target": "T1, CALM1 (calmodulin)", "assay": "Isothermal titration calorimetry (ITC) with calmodulin", "conditions": "50 μM calmodulin in water, 25 °C, pH 6.5, read-out: KD (binding affinity to calmodulin by isothermal titration calorimetry)", "description": "ITC experiments were performed using a MicroCal ITC200 from GE Healthcare. 27c and 28c were dissolved in water to a concentration of 0.7 and 0.6 mM, respectively. Calmodulin was dissolved in water at 50 μM. Optionally CaCl2 (final concentration 500 μM) or EDTA (final concentration 1 mM) were added. The peptide solution was injected into the calmodulin solution (2.5 μL of peptide per injection at an interval of 180 s, a total of 15 injections into the cell volume of 200 μL, with stirring speed of 800 rpm, at 25 °C). […] The experimental data were fitted to a theoretical titration curve (“one set of sites” model) using software supplied by Microcal, with n (number of binding sites per monomer), ΔH (binding enthalpy, kcal mol^–1) and Ka (association constant, M^–1), as adjustable parameters. Thermodynamic parameters were calculated from the Gibbs free energy equation, ΔG = ΔH – TΔS = –RT ln Ka, where ΔG, ΔH, and ΔS are the changes in free energy, enthalpy, and entropy of binding, respectively. T is the absolute temperature, and R = 1.98 cal mol^–1 K^–1."}, "Human calmodulin (CALM1)": {"target": "T2, Human calmodulin (CALM1) (Homo sapiens, UniProt P0DP23)", "T2 construct": "purchased Enzo Life Sciences, Lausen, Switzerland", "assay": "MicroScale Thermophoresis (MST) binding to fluorescently labeled calmodulin", "conditions": "10 nM labeled calmodulin, 25 °C", "description": "Human calmodulin (Enzo Life Sciences, Lausen, Switzerland) was labeled using the RED-NHS Labeling kit (NanoTemper Technologies). The labeling reaction was performed according to the manufacturer's instructions in the supplied labeling buffer applying a concentration of 20 μM protein (molar dye : protein ratio ≈ 2 : 1) at RT for 30 min. Unreacted dye was removed with the supplied dye removal columns equilibrated with MST buffer (50 mM TrisHCl pH 7.5, 150 mM NaCl, 10 mM MgCl2). The label : protein ratio was determined using photometry at 650 and 280 nm. Thereby, a ratio of 0.8 was typically achieved. The labeled calmodulin was adjusted to 20 nM with MST buffer. […]\nFor thermophoresis, each ligand dilution was mixed with one volume of labeled calmodulin, which leads to a final concentration of fluorescently labeled calmodulin of 10 nM and final ligand concentrations ranging from 15.3 nM to 250 μM. […] Thermophoresis was measured using a Monolith NT.115 instrument (NanoTemper Technologies GmbH) at an ambient temperature of 25 °C with 5 s/30 s/5 s laser off/on/off times, respectively. […] Data of three independently pipetted measurements were analyzed (NT.Analysis software version 1.5.41, NanoTemper Technologies) using the signal from Thermophoresis + T-Jump. […]"}}, "note": "Where a SMILES comes first, the peptide text is derived from it. Bridges are numbered along the chain shown (N, C = ends). [ ]: non-standard residue; d: D form."}
{"compound": "CC(C)C[C@@H]1NC(=O)CC[C@@H]2NC(=O)[C@@H]3CCCN3C(=O)[C@@H](Cc3ccc(O)cc3)NC(=O)[C@@H](CCCCNC(=O)[C@H](C)NC2=O)NC(=O)CNC1=O", "note": "[compound 15, L^1Gk^2yPE^1A^2] (LG[dK][dY]PEA; lactam 3-C, N-6)", "values": [{"measurement": "Stability upon incubation in human serum", "setting": "[1]", "result": "stable"}]}
{"compound": "K^2E^1Kwz^2WK^1GBGGK(biot) [27x]", "values": [{"measurement": "CALM1 (calmodulin) identified as target by CCMS", "setting": "CALM1 (calmodulin) [2]", "result": "specifically targeted"}]}
{"compound": "CC(C)C[C@H]1NC(=O)CC[C@@H]2NC(=O)[C@@H]3CCCN3C(=O)[C@@H](Cc3ccccc3)NC(=O)[C@@H](CCCCNC(=O)[C@@H](C)NC2=O)NC(=O)CNC1=O", "note": "[compound 1, l^1Gk^2fPE^1a^2] ([dL]G[dK][dF]PE[dA]; lactam 3-C, N-6)", "values": [{"measurement": "Water solubility", "setting": "[3]", "result": "water insoluble"}]}
{"compound": "R^2E^1Rfz^2FK^1GBGGK(biot) [28x]", "values": [{"measurement": "CALM1 (calmodulin) identified as target by CCMS", "setting": "CALM1 (calmodulin) [2]", "result": "did not indicate this target"}]}
{"compound": "N=C(N)NCCC[C@@H]1NC(=O)CSC[C@H]2NC(=O)[C@@H](Cc3ccccc3)NC(=O)[C@H](CCCNC(=N)N)NC(=O)[C@H](CCC(=O)NCCCC[C@@H](C(=O)NCC(N)=O)NC(=O)[C@H](Cc3ccccc3)NC2=O)NC1=O", "note": "[28c, R^2E^1Rfz^2FK^1G] ({CH2CO}-RER[dF][dC]FKG-NH2; lactam 2-7; thioether N-5)", "values": [{"measurement": "Kd", "setting": "CALM1 (calmodulin) [4]", "result": "6.8 ± 0.6", "unit": "µM"}, {"measurement": "KD (binding affinity to calmodulin by microscale thermophoresis)", "setting": "Human calmodulin (CALM1); MST buffer pH 7.5", "result": "no measurable affinity"}]}
{"compound": "K^2E^1Kwz^2WK^1GFGGK(biot) [27s]", "values": [{"measurement": "CALM1 (calmodulin) identified as target by CCMS", "setting": "CALM1 (calmodulin) [2]", "result": "specifically targeted"}]}
{"compound": "NCCCC[C@@H]1NC(=O)CSC[C@H]2NC(=O)[C@@H](Cc3c[nH]c4ccccc34)NC(=O)[C@H](CCCCN)NC(=O)[C@H](CCC(=O)NCCCC[C@@H](C(=O)NCC(N)=O)NC(=O)[C@H](Cc3c[nH]c4ccccc34)NC2=O)NC1=O", "note": "[27c, K^2E^1Kwz^2WK^1G] ({CH2CO}-KEK[dW][dC]WKG-NH2; lactam 2-7; thioether N-5)", "values": [{"measurement": "Kd", "setting": "CALM1 (calmodulin) [4]", "result": "0.8 ± 0.05", "unit": "µM"}, {"measurement": "Kd", "setting": "Human calmodulin (CALM1); MST buffer pH 7.5, read-out: KD (binding affinity to calmodulin by microscale thermophoresis)", "result": "4.5 ± 1.1", "unit": "µM"}, {"measurement": "Stability upon incubation in human serum", "setting": "[1]", "result": "entirely stable"}]}
{"compound": "R^2E^1Rfz^2FK^1GFGGK(biot) [28s]", "values": [{"measurement": "CALM1 (calmodulin) identified as target by CCMS", "setting": "CALM1 (calmodulin) [2]", "result": "did not indicate this target"}]}
